Assay results from patent US10584103B2 (Sanford Burnham Prebys Medical Discovery Institute, priority 2014, dated 2020).

Assays:
NTR1 = NTR1 (Homo sapiens (Human), UniProt P30989); assay: NTR1 dose response, high-content imaging assay in NTR1-U2OS cells (beta-arrestin-GFP); assay type: cell-based
Text: The cell lines utilized in the high-content imaging assays, which include the NTR1-, NTR2-, and GPR35-U2OS osteosarcomas, were obtained from the laboratory of Dr. Lawrence Barak at the Duke University Medical Center. The media used in the culture of the cell lines, as well as the assays themselves, consisted of Minimum Essential Medium (15-010-CM) and L-glutamine (25-005-CL) from Cellgro/Mediatech (Manassas, Va.), fetal bovine serum (SH30396.03) from Hyclone (Logan, Utah), penicillin-streptomycin solution (PS-20) from Omega Scientific in Tarzana, Calif., G418 (ant-gn-1) from Invivogen (San Diego, Calif.), and zeocin (R250-01) from Invitrogen (Carlsbad, Calif.). Cell lines were cultured in T225 tissue culture flasks (431082) supplied by Corning (Corning, N.Y.). Additional reagents employed include Dulbecco's Phosphate-Buffered Saline (DPBS) (21-031CV) from Cellgro/Mediatech, Trypsin-EDTA 0.05% (25300) from Invitrogen, paraformaldehyde (30528954) from Acros Organics (Geel, Belgium), Hoechst 33342 (H3570) from Invitrogen. The high-content assays were run in 1536-well plates (29326) supplied by Aurora Biotechnology (Poway, Calif.) and utilized aluminum plate seals (T592100) from E&K Scientific (Santa Clara, Calif.). […]

[1] = tested on: neurotensin-deficient mice; settings: cited from earlier work

Sequence of NTR1 (P30989 whole entry, species assumed): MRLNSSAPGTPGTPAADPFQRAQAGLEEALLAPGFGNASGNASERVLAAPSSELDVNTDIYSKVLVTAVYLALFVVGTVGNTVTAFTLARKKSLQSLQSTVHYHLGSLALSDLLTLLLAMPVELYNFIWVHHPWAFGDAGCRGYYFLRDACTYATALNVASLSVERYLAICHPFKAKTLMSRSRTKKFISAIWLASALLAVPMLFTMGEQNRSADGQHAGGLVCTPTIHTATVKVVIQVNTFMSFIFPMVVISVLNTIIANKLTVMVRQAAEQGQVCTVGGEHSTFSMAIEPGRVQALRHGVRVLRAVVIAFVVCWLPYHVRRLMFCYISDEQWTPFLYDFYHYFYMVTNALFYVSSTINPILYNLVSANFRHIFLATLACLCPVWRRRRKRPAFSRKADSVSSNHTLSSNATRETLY

C#Cc1nc(N2CCC(c3ccccc3OC)CC2)c2cc(N(C)CCO)ccc2n1 [Example 192, 2-({2-Ethynyl-4-[4-(2-methoxy-phenyl)-piperidin-1-yl]-quinazolin-6-yl}-methyl-amino)-ethanol]
EC50 (NTR1): et

OCCOCCN1CCN(C2=Nc3ccccc3Sc3ccccc32)CC1 [quetiapine]
augmentation of PPI [1]: ineffective

O=C(CCCN1CCC(O)(c2ccc(Cl)cc2)CC1)c1ccc(F)cc1 [haloperidol]
augmentation of PPI [1]: ineffective

CN1CCN(C2=Nc3cc(Cl)ccc3Nc3ccccc32)CC1 [clozapine]
augmentation of PPI [1]: augmented PPI normally
